Results published in patent publication US6153604A, “Therapeutic substituted guanidines” (Cambridge NeuroScience, Inc., priority 1995, dated 2000).
Where a name gives a salt, the structure may show the parent alone.

Key:
[1] = tested on: NMDA-induced excitotoxic damage to the central nervous system; test: In vivo assay for protection against NMDA-induced excitotoxic damage to the central nervous system; set-up: species or system rat (Day 7 neonatal); conditions: Rattus norvegicus, ip, 120 h, intraperitoneal; for inhibition in vivo at 60 µmol/kg: dose 60 μmol/kg; for ED80: 15 minutes after intrastriatal NMDA, neonatal rats, read-out: ED80 (dose that provides 80% of the maximum protection)
Method: In vivo assay for protection against NMDA-induced excitotoxic damage to the central nervous system.
The in vivo potency of compounds of the present invention is exemplified by data summarized in Table II and obtained pursuant to the following protocol. Day 7 neonatal rats were anesthetized with metophane inhalation anesthetic for 4-6 minutes, inserted into a stereotaxic apparatus and injected intrastriatally with 0.5 μl of 50 mM NMDA (N-methyl-D-aspartate). 15 minutes after the NMDA injection, the rat pups were injected intraperitoneally with 10, 30 or 60 μmol/kg of the NMDA antagonist of the structure specified in Table II Animals were returned to their mother and watched for signs of distress (e.g., respiratory depression). After five days, the animals were anesthetized with CO2 and then decapitated; their brains were removed and weighed to determine the degree of neuroprotection. Because NMDA injection results in a retardation of brain growth (including necrosis), effects can be measured gravimetrically in terms of the weights of injected and non-injected hemispheres. Two groups of rat pups were used at each of three doses of a compound to generate a neuroprotection dose-response curve. The chemical structure of each of the tested compounds is specified below with the general formula of the compounds shown at the top of Table II with particular substituent groups specified within that Table. Table II discloses 1) the ED80 for each tested compound, i.e., the dose of a compound that provides 80% of the maximum protection against damage to the central nervous system; and 2) the percent (%) maximum protection against damage to the central nervous system provided by the indicated dose expressed as μmol per kilogram bodyweight of the test subject.

[2] = biological target: PCP receptor; test: PCP receptor radioligand binding assay ([3H]MK-801, rat brain membranes); conditions: read-out: [3H-MK801] IC50; displacement of [3H]MK-801, rat brain membranes
[3] = biological target: sigma receptor; test: Sigma receptor binding assay ([3H]DTG, guinea pig brain membrane homogenates); conditions: displacement of [3H]DTG, guinea pig brain membranes
Method: Sigma Receptor Binding Assay
Briefly, frozen whole guinea-pig brains (Biotrol, Indianapolis, Ind.) were homogenized in 10 volumes (w/v) of ice-cold 320 mM sucrose using a Brinkman polytron. The homogenate was centrifuged at 1,000×g for 20 minutes at 4° C. The supernatant was centrifuged at 20,000×g for 20 minutes at 4° C. The resulting pellet was resuspended in 10 initial volumes of 50 mM Tris/HCl buffer at pH 7.4 and centrifuged at 20,000×g for 20 minutes at 4° C. The resulting pellet was resuspended in 5 initial volumes ice-cold 50 mM Tris/HCl (pH 7.4), and the final volume was adjusted to yield a protein concentration of 3 mg/ml. Aliquots of 20-ml were stored at -70° C. until used, with no detectable loss of binding.
The protein concentration in the 1-ml final incubation volume was 800 μg/ml, corresponding to 32 mg of brain tissue (original wet weight) and to a tissue concentration within the linear range for specific binding. […] Incubations were terminated after 90 minutes at room temperature by addition of 4 ml of ice-cold 50 mM Tris/HCl (pH 7.4) and rapid filtration of the membrane suspension through Whatman GF/B glass-fiber filters under vacuum, using a 48-well cell harvester (Brandel). The filters were washed 2 times with 4 ml of 50 mM Tris/HCl (pH 7.4). […] IC50 values were determined by non-linear regression analysis.

[4] = read-out: % maximum protection per dose

Compound	inhibition in vivo at 60 µmol/kg [1, 4] [%]	ED80 [1] [µmol/kg]	inhibition in vivo at 30 µmol/kg ([1]; dose 30 μmol/kg, read-out: % maximum protection per dose) [%]	IC50 [2] [nM]	IC50 [3] [nM]
CCc1cccc(N(C)C(=N)Nc2cc(Cl)ccc2Cl)c1 [Cmpd. No. 1 (Table II), N-(3-ethylphenyl)-N-methyl-N'-(2,5-dichlorophenyl)guanidine hydrochloride]	88.8	36.4			
CCc1cccc(N(C)C(=N)Nc2cc(Br)ccc2Br)c1 [Cmpd. No. 2 (Table II), N-(3-ethylphenyl)-N-methyl-N'-(2,5-dibromophenyl)guanidine hydrochloride]	93.8	13.4			
CCc1cccc(NC(=N)Nc2cc(C(F)(F)F)ccc2F)c1 [Cmpd. No. 3 (Table II), N-(3-Ethylphenyl)-N'-(2-fluoro-5-trifluoromethylphenyl)guanidine hydrochloride]	76.6	15.2			
CCc1cccc(N(C)C(=N)Nc2cc(CC)ccc2Cl)c1 [Cmpd. No. 4 (Table II), N-(3-Ethylphenyl)-N-methyl-N'-(2-chloro-5-ethylphenyl)guanidine hydrochloride]	77.8	19.8			
CCc1ccc(Cl)c(N(C)C(=N)Nc2cccc3ccccc23)c1 [Cmpd. No. 5 (Table II), N-(1-Naphthyl)-N'-(2-chloro-5-ethylphenyl)-N'-methylguanidine hydrochloride]	92.2	22.3			
Cc1ccc(C)c(N(C)C(=N)Nc2cccc3ccccc23)c1 [Cmpd. No. 7 (Table II), N-(1-Naphthyl)-N'-(2,5-dimethylphenyl)-N'-methylguanidine hydrochloride]		22.5	86		
N=C(Nc1cc(C(F)(F)F)ccc1F)Nc1cccc2ccccc12 [Cmpd. No. 8 (Table II), N-(1-Naphthyl)-N'-(2-fluoro-5-trifluoromethylphenyl)guanidine hydrochloride]	96	28.8			
CSc1ccc(Cl)c(NC(=N)Nc2cccc3ccccc23)c1 [Cmpd. No. 9 (Table II), N-(1-Naphthyl)-N'-(2-chloro-5-thiomethylphenyl)guanidine hydrochloride]	92.7	10.8			
N=C(Nc1cc(C(F)(F)F)ccc1Br)Nc1cccc2ccccc12 [Compd. No. 41 (Table I), N-(1-Naphthyl)-N'-(2-bromo-5-trifluoromethylphenyl)guanidine hydrochloride]				51.1	49.6
CSc1ccc(C(F)(F)F)cc1NC(=N)Nc1cccc2ccccc12 [Compd. No. 42 (Table I), N-(1-Naphthyl)-N'-(2-thiomethyl-5-trifluoromethylphenyl)guanidine hydrochloride]				170	418
CCc1ccc(Cl)c(NC(=N)Nc2cccc3ccccc23)c1 [Compd. No. 44 (Table I), N-(1-Naphthyl)-N'-(2-chloro-5-ethylphenyl)guanidine hydrochloride]				20.6	4.94
CCc1cccc(NC(=N)Nc2cccc3ccccc23)c1 [Compd. No. 45 (Table I)]				39	53.8
CSc1ccc(Cl)c(NC(=N)Nc2cccc3ccccc23)c1 [Compd. No. 46 (Table I), N-(1-Naphthyl)-N'-(2-chloro-5-thiomethylphenyl)guanidine hydrochloride]				43	25.4
CSc1cccc(NC(=N)Nc2cccc3ccccc23)c1 [Compd. No. 47 (Table I)]				124	27
Cc1ccc(Cl)c(NC(=N)Nc2cccc3cccnc23)c1 [Compd. No. 48 (Table I), N-(8-Quinolinyl)-N'-(2-chloro-5-methylphenyl)guanidine hydrochloride]				32	989
CN(C(=N)Nc1cccc2ccccc12)c1cc(Cl)ccc1Cl [Compd. No. 50 (Table I), N-(1-Naphthyl)-N'(2,5-dichlorophenyl)-N'-methylguanidine hydrochloride]				62	1320

Compound	inhibition in vivo at 60 µmol/kg [1, 4] [%]	ED80 [1] [µmol/kg]	inhibition in vivo at 30 µmol/kg ([1]; dose 30 μmol/kg, read-out: % maximum protection per dose) [%]	IC50 [2] [nM]	IC50 [3] [nM]
CN(C(=N)Nc1cccc2ccccc12)c1cccc(Cl)c1 [Compd. No. 52 (Table I)]				107	2980
Cc1ccc(C)c(N(C)C(=N)Nc2cccc3ccccc23)c1 [Compd. No. 54 (Table I), N-(1-Naphthyl)-N'-(2,5-dimethylphenyl)-N'-methylguanidine hydrochloride]				79	1550
Cc1ccc(Cl)c(N(C)C(=N)Nc2cccc3ccccc23)c1 [Compd. No. 55 (Table I), N-(1-Naphthyl)-N'-(2-chloro-5-methylphenyl)-N'-methylguanidine hydrochloride]				41	2420
CCc1ccc(Cl)c(N(C)C(=N)Nc2cccc3ccccc23)c1 [Compd. No. 57 (Table I), N-(1-Naphthyl)-N'-(2-chloro-5-ethylphenyl)-N'-methylguanidine hydrochloride]				32.8	136
CCc1cccc(N(C)C(=N)Nc2cccc3ccccc23)c1 [Compd. No. 58 (Table I)]				37.5	2540
CCc1cccc(N(C)C(=N)Nc2cc(SC)ccc2Br)c1 [Compd. No. 59 (Table I)]				3.19	240
CSc1cccc(N(C)C(=N)Nc2cc(SC)ccc2Cl)c1 [Compd. No. 60 (Table I), N-(3-Methylthiophenyl)-N-methyl-N'-(2-chloro-5-methylthiophenyl)guanidine hydrochloride]				2.43	480
CCc1ccc(Cl)c(NC(=N)N(C)c2cccc(SC)c2)c1 [Compd. No. 61 (Table I), N-(3-Methylthiophenyl)-N-methyl-N'-(2-chloro-5-ethylphenyl)guanidine hydrochloride]				12.5	178
CSc1cccc(N(C)C(=N)Nc2cc(Cl)ccc2Cl)c1 [Compd. No. 62 (Table I), N-(3-Methylthiophenyl)-N-methyl-N'-(2,5-dichlorophenyl)guanidine hydrochloride]				59.3	130
CSc1ccc(Cl)c(NC(=N)N(C)c2cccc(C(F)(F)F)c2)c1 [Compd. No. 66 (Table I), N-(3-Trifluoromethylphenyl)-N-methyl-N'-(2-chloro-5-methylthiophenyl)guanidine hydrochloride]				8.47	421
CCc1ccc(Cl)c(NC(=N)N(C)c2cccc(C(F)(F)F)c2)c1 [Compd. No. 67 (Table I), N-(3-Trifluoromethylphenyl)-N-methyl-N'-(2-chloro-5-ethylphenyl)guanidine hydrochloride]				77	200
CSc1ccc(Br)c(NC(=N)N(C)c2cccc(C(F)(F)F)c2)c1 [Compd. No. 69 (Table I), N-(3-Trifluoromethylphenyl)-N-methyl-N'-(2-bromo-5-methylthiophenyl)guanidine hydrochloride]				5.55	631
CCc1ccc(Br)c(NC(=N)N(C)c2cccc(C(F)(F)F)c2)c1 [Compd. No. 70 (Table I), N-(3-Trifluoromethylphenyl)-N-methyl-N'-(2-bromo-5-ethylphenyl)guanidine hydrochloride]				20.4	166
CN(C(=N)Nc1cc(Br)ccc1Br)c1cccc(C(F)(F)F)c1 [Compd. No. 71 (Table I), N-(3-Trifluoromethylphenyl)-N-methyl-N'-(2,5-dibromophenyl)guanidine hydrochloride]				34	224
CCc1cccc(NC(=N)Nc2cc(C(F)(F)F)ccc2F)c1 [Compound 5]				98.9	14.8
CSc1ccc(Cl)c(NC(=N)N(C)c2cccc3cccnc23)c1 [Compound 79]				22.3	542
